The values below come from the supplement of paper PMC10477900.

As a reminder, the IC50 is the concentration that inhibits the measured activity by half.

Structures can show the parent of a compound that is named as a salt. Some results are limits rather than exact numbers.

For test [1], the system named is HCT116. The conditions noted are these: 72 h. The procedure:
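HCT116 control and MTA1-KO (CRISPR) HCT116 cells were seeded in 384-well plates (800 cells/well), treated 16 h later with 237 metabolism-related anticancer drugs at five doses (10 uM, 2 uM, 400 nM, 80 nM, 16 nM) for 72 h, two replicates; viability by CCK8. Values are % inhibition of viability relative to untreated cells, plus fitted IC50.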

Test [2] has as its system HCT116. Briefly: viability inhibition vs untreated; higher = more cytotoxic. The following applies: 72 h.

For `CC(O)=C(C#N)C(=O)Nc1ccc(C(F)(F)F)cc1` [Teriflunomide], the IC50 in test [1] (genotype: MTA1-KO) and in test [1] (genotype: control) was above 10 µM each time. For the same compound, the viability inhibition was -20.1% in test [2] (genotype: MTA1-KO, 16 nM); -19.6% in test [2] (genotype: MTA1-KO, 80 nM); -22.5% in test [2] (genotype: MTA1-KO, 400 nM); -31.4% in test [2] (genotype: MTA1-KO, 2000 nM); -28.2% in test [2] (genotype: MTA1-KO, 10000 nM); 12.8% in test [2] (genotype: control, 16 nM). The viability inhibition in test [2] (genotype: control, 80 nM) was -1.7%; in test [2] (genotype: control, 400 nM), -4.62%; in test [2] (genotype: control, 2000 nM), -5.29%; in test [2] (genotype: control, 10000 nM), 10.1%.
In the case of `O=c1oc2cc(O)ccc2s1` [Tioxolone], the IC50 in test [1] (genotype: MTA1-KO) and in test [1] (genotype: control) was above 10 µM in each case. The viability inhibition in test [2] (genotype: MTA1-KO, 16 nM) was -23.8%; in test [2] (genotype: MTA1-KO, 80 nM) it was -21.4%; in test [2] (genotype: MTA1-KO, 400 nM), -19%; in test [2] (genotype: MTA1-KO, 2000 nM) it was -28.2%; in test [2] (genotype: MTA1-KO, 10000 nM), -26.1%; in test [2] (genotype: control, 16 nM) it was 0.941%. In addition, the viability inhibition in test [2] (genotype: control, 80 nM) is -1.9%; in test [2] (genotype: control, 400 nM), -1.53%; in test [2] (genotype: control, 2000 nM) it was -13.6%; in test [2] (genotype: control, 10000 nM), -6.09%.
As for `CC1(C)O[C@@H]2[C@@H](CO[C@@]3(COS(N)(=O)=O)OC(C)(C)O[C@@H]23)O1` [Topiramate], the IC50 in test [1] (genotype: MTA1-KO) and in test [1] (genotype: control) was above 10 µM each time. For the same compound, the viability inhibition in test [2] (genotype: MTA1-KO, 16 nM) is -4.79%; in test [2] (genotype: MTA1-KO, 80 nM), -13.2%; in test [2] (genotype: MTA1-KO, 400 nM) it was -12.6%; in test [2] (genotype: MTA1-KO, 2000 nM), -13%; in test [2] (genotype: MTA1-KO, 10000 nM) it was -6.53%; in test [2] (genotype: control, 16 nM) it was 0.571%. The viability inhibition in test [2] (genotype: control, 80 nM) is -0.663%; in test [2] (genotype: control, 400 nM) it was 3.41%; in test [2] (genotype: control, 2000 nM), 3.1%; in test [2] (genotype: control, 10000 nM), 12.4%.
Take `CCC(=O)N1CCN(c2ccc(-n3c(=O)ccc4cnc5ccc(-c6cnc7ccccc7c6)cc5c43)cc2C(F)(F)F)CC1` [Torin 1]: the IC50 in test [1] (genotype: MTA1-KO) was 0.324 µM; in test [1] (genotype: control), 1.8 µM. In addition, the viability inhibition in test [2] (genotype: MTA1-KO, 16 nM) was 2.4%; in test [2] (genotype: MTA1-KO, 80 nM), 8.65%; in test [2] (genotype: MTA1-KO, 400 nM), 52%; in test [2] (genotype: MTA1-KO, 2000 nM), 70.7%; in test [2] (genotype: MTA1-KO, 10000 nM), 80.9%; in test [2] (genotype: control, 16 nM), -14.3%. The viability inhibition in test [2] (genotype: control, 80 nM) is -3.02%; in test [2] (genotype: control, 400 nM), 4.25%; in test [2] (genotype: control, 2000 nM), 56%; in test [2] (genotype: control, 10000 nM), 62.3%.
Regarding `Nc1ccc(-c2ccc3ncc4ccc(=O)n(-c5cccc(C(F)(F)F)c5)c4c3c2)cn1` [Torin 2], the values for the IC50 in test [1] (genotype: MTA1-KO) and in test [1] (genotype: control) were 0.134 µM and 0.289 µM, respectively. Moreover, the viability inhibition in test [2] (genotype: MTA1-KO, 16 nM) was -2.56%; in test [2] (genotype: MTA1-KO, 80 nM), 37.4%; in test [2] (genotype: MTA1-KO, 400 nM), 77.4%; in test [2] (genotype: MTA1-KO, 2000 nM) it was 88.6%; in test [2] (genotype: MTA1-KO, 10000 nM) it was 104%; in test [2] (genotype: control, 16 nM) it was -9.67%. The viability inhibition in test [2] (genotype: control, 80 nM) was determined as 18.6%; in test [2] (genotype: control, 400 nM) it was 72.5%; in test [2] (genotype: control, 2000 nM), 87%; in test [2] (genotype: control, 10000 nM), 108%.
`CC(C)n1nc(-c2cc3cc(O)ccc3[nH]2)c2c(N)ncnc21` [Torkinib]: the 50% inhibitory concentration (IC50) in test [1] (genotype: MTA1-KO) was above 10 µM; in test [1] (genotype: control) it was 8.06 µM. Besides, the viability inhibition in test [2] (genotype: MTA1-KO, 16 nM) is -28.4%; in test [2] (genotype: MTA1-KO, 80 nM), -28.6%; in test [2] (genotype: MTA1-KO, 400 nM), -28.2%; in test [2] (genotype: MTA1-KO, 2000 nM) it was -9.28%; in test [2] (genotype: MTA1-KO, 10000 nM), 27.1%; in test [2] (genotype: control, 16 nM), -1.58%. Besides, the viability inhibition is -1.28% in test [2] (genotype: control, 80 nM); -0.73% in test [2] (genotype: control, 400 nM); 8.7% in test [2] (genotype: control, 2000 nM); 65.9% in test [2] (genotype: control, 10000 nM).
For `N[C@@H]1C[C@H]1c1ccccc1` [Tranylcypromine (2-PCPA) hydrochloride], the IC50 in test [1] (genotype: MTA1-KO) and in test [1] (genotype: control) was above 10 µM in each case. Moreover, the viability inhibition in test [2] (genotype: MTA1-KO, 16 nM) was -22.8%; in test [2] (genotype: MTA1-KO, 80 nM), -17.9%; in test [2] (genotype: MTA1-KO, 400 nM) it was -14.3%; in test [2] (genotype: MTA1-KO, 2000 nM) it was -18.2%; in test [2] (genotype: MTA1-KO, 10000 nM) it was -15.3%; in test [2] (genotype: control, 16 nM), -0.159%. For the same compound, the viability inhibition in test [2] (genotype: control, 80 nM) was -12.9%; in test [2] (genotype: control, 400 nM), -1.62%; in test [2] (genotype: control, 2000 nM) it was -5.71%; in test [2] (genotype: control, 10000 nM) it was -28%.
As to `CC1=C(/C=C/C(C)=C/C=C/C(C)=C/C(=O)O)C(C)(C)CCC1` [Tretinoin], the IC50 in test [1] (genotype: MTA1-KO) and in test [1] (genotype: control) was above 10 µM throughout. Moreover, the viability inhibition in test [2] (genotype: MTA1-KO, 16 nM) was -24.6%; in test [2] (genotype: MTA1-KO, 80 nM) it was -24.4%; in test [2] (genotype: MTA1-KO, 400 nM) it was -23.5%; in test [2] (genotype: MTA1-KO, 2000 nM) it was -20.8%; in test [2] (genotype: MTA1-KO, 10000 nM), -24.5%; in test [2] (genotype: control, 16 nM) it was -4.55%. For the same compound, the viability inhibition is -1.65% in test [2] (genotype: control, 80 nM); -12.1% in test [2] (genotype: control, 400 nM); -9.98% in test [2] (genotype: control, 2000 nM); -3.87% in test [2] (genotype: control, 10000 nM).
Consider `NS(=O)(=O)c1cc2c(cc1Cl)NC(C(Cl)Cl)NS2(=O)=O` (stereo not drawn) [Trichlormethiazide], for which the IC50 in test [1] (genotype: MTA1-KO) and in test [1] (genotype: control) was above 10 µM each time. Besides, the viability inhibition in test [2] (genotype: MTA1-KO, 16 nM) is -29.5%; in test [2] (genotype: MTA1-KO, 80 nM) it was -30.5%; in test [2] (genotype: MTA1-KO, 400 nM) it was -28.4%; in test [2] (genotype: MTA1-KO, 2000 nM) it was -24.3%; in test [2] (genotype: MTA1-KO, 10000 nM) it was -25.6%; in test [2] (genotype: control, 16 nM) it was -19.9%. The viability inhibition in test [2] (genotype: control, 80 nM) is -23.8%; in test [2] (genotype: control, 400 nM) it was -25.7%; in test [2] (genotype: control, 2000 nM), -14.7%; in test [2] (genotype: control, 10000 nM) it was -2.52%.
